The structures appear in SMILES notation. “And” between values parts separate entries of the source, which are not always exact repeats. Equal entries are not always repeated.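 Growth conditions: 96-well plates. Treatment: test compound, 48 hours, 5 concentrations. Analysis: linear interpolation between bracketing concentrations; unreached endpoints set to highest concentration. GI50 is the concentration that inhibits growth by half. At the TGI there is no net growth.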 A value given as a limit tells only on which side of the number the result lay.

We go through eleven molecules from PubChem BioAssay (NCI).

Among the test systems are RPMI-8226 leukemia; UACC-62 melanoma; SW-620 colon; EKVX NSCLC; SK-MEL-28 melanoma; NCI-H460 lung; OVCAR-4 ovarian; HCT-15 colon; K-562 leukemia; SK-OV-3 ovarian.
Assay in all cases: growth of human tumour cells (NCI), 48 h

Take `Cn1nc(-c2ccccc2)nc1[N+](=O)[O-]`: the TGI with RPMI-8226 leukemia, with UACC-62 melanoma, in the test with SW-620 colon, in the test with EKVX NSCLC, in the test on SK-MEL-28 melanoma and with NCI-H460 lung was above 10 µM each time. Besides, the TGI in the test on OVCAR-4 ovarian, in the test with HCT-15 colon, in the test with K-562 leukemia and with SK-OV-3 ovarian was above 10 µM throughout.
`Nc1cc(-c2cccc(OC(F)(F)F)c2)nc2ccc(N3CCCC3)cc12`: the GI50 was 47.9 nM and 40.4 nM and 44.7 nM with RPMI-8226 leukemia; 71.8 nM and 48 nM and 60.3 nM in the test with UACC-62 melanoma; 43.5 nM and 41.3 nM and 36.6 nM in the test with SW-620 colon; 0.222 µM and 0.362 µM and 0.38 µM in the test on EKVX NSCLC; 1.46 µM and 3.07 µM and 3.91 µM in the test with SK-MEL-28 melanoma; 35.4 nM and 35.9 nM in the test on NCI-H460 lung. Also, the GI50 in the test on OVCAR-4 ovarian is 519 nM and 1160 nM and 1590 nM; in the test with HCT-15 colon it was 33.8 nM and 34.9 nM and 31.2 nM; in the test with K-562 leukemia, 29.8 nM and 17.5 nM and 17.6 nM; with SK-OV-3 ovarian, 71 nM and 45.6 nM and 40.6 nM. Also, the TGI was 7.32 µM and > 33.2 µM and > 64.9 µM in the test with RPMI-8226 leukemia; 15.8 µM and > 100 µM in the test on UACC-62 melanoma; 22.1 µM and > 100 µM with SW-620 colon; above 100 µM in the test on EKVX NSCLC; 12.5 µM and > 100 µM in the test on NCI-H460 lung; above 100 µM with OVCAR-4 ovarian. Further, the TGI in the test with HCT-15 colon was 11.5 µM and > 100 µM; in the test on SK-OV-3 ovarian it was above 100 µM.
In the case of `O=C1NC2CCC(C2)C1c1ccccc1` (stereo unspecified), the TGI in the test with RPMI-8226 leukemia, in the test with UACC-62 melanoma, in the test with SW-620 colon, with EKVX NSCLC, with SK-MEL-28 melanoma and in the test with NCI-H460 lung was above 100 µM each time. In addition, the TGI with OVCAR-4 ovarian, with K-562 leukemia and with SK-OV-3 ovarian was above 100 µM each time.
Regarding `Cc1cc(-c2nnc(N)nc2-c2ccc(F)cc2)cc(Cl)n1`, the GI50 is 37300 nM with RPMI-8226 leukemia; above 100000 nM with SW-620 colon; 59.9 µM in the test on EKVX NSCLC; above 100 µM with SK-MEL-28 melanoma; above 100000 nM with NCI-H460 lung; 97300 nM in the test with OVCAR-4 ovarian. The GI50 in the test with HCT-15 colon is above 100000 nM; in the test with K-562 leukemia, 59000 nM; in the test on SK-OV-3 ovarian, above 100000 nM. Also, the TGI in the test with RPMI-8226 leukemia, with SW-620 colon, in the test on EKVX NSCLC, with SK-MEL-28 melanoma, in the test on NCI-H460 lung and in the test on OVCAR-4 ovarian was above 100 µM throughout. The TGI in the test with HCT-15 colon, with K-562 leukemia and with SK-OV-3 ovarian was above 100 µM throughout.
Consider `CC(=O)/C(=C\C1=CCCO1)C(=O)Nc1ccccc1C`, for which the TGI in the test on RPMI-8226 leukemia, in the test on UACC-62 melanoma, in the test with SW-620 colon, in the test with EKVX NSCLC, in the test on NCI-H460 lung and with OVCAR-4 ovarian was above 100 µM each time. For the same molecule, the TGI in the test with HCT-15 colon, in the test with K-562 leukemia and in the test on SK-OV-3 ovarian was above 100 µM throughout.
Consider `COC(=O)C12CC3CC(C1)CC(C(=O)OC)(C3)C2`, for which the TGI in the test on RPMI-8226 leukemia, with UACC-62 melanoma, in the test on SW-620 colon, in the test on EKVX NSCLC, in the test with SK-MEL-28 melanoma and in the test on NCI-H460 lung was above 100 µM in each case. The TGI in the test on OVCAR-4 ovarian, in the test on HCT-15 colon and in the test with SK-OV-3 ovarian was above 100 µM in each case.
`CC[O-].CC[O-].O=C1C(c2ccccc2)=C([O-])c2ccccc21.O=C1C(c2ccccc2)=C([O-])c2ccccc21.[Ti+4]`: the GI50 in the test with RPMI-8226 leukemia is 30300 nM; in the test on UACC-62 melanoma it was 72600 nM; with SW-620 colon, above 100000 nM; with EKVX NSCLC it was 60.1 µM; in the test with SK-MEL-28 melanoma, above 100 µM; with NCI-H460 lung it was above 100000 nM. In addition, the GI50 in the test with OVCAR-4 ovarian, with HCT-15 colon and in the test on SK-OV-3 ovarian was above 100000 nM throughout. For the same molecule, the TGI with RPMI-8226 leukemia was 99.5 µM; in the test with UACC-62 melanoma, above 100 µM; in the test on SW-620 colon, above 100 µM; in the test with EKVX NSCLC it was above 100 µM; with SK-MEL-28 melanoma, above 100 µM; in the test with NCI-H460 lung, above 100 µM. Further, the TGI with OVCAR-4 ovarian, in the test with HCT-15 colon and in the test on SK-OV-3 ovarian was above 100 µM throughout.
`COc1ccc2cc3[n+](cc2c1OC)CCc1cc(O)c(O)cc1-3`: the TGI in the test with RPMI-8226 leukemia, with UACC-62 melanoma, in the test on SW-620 colon, in the test on EKVX NSCLC, in the test with NCI-H460 lung and with OVCAR-4 ovarian was above 100 µM in each case. Further, the TGI with HCT-15 colon, with K-562 leukemia and in the test on SK-OV-3 ovarian was above 100 µM throughout.
Consider `Cc1cc(C)nc(NS(=O)(=O)c2ccc(Nc3c4ccc(Cl)cc4nc4c(C(=O)Nc5ccc(S(=O)(=O)N=C(N)N)cc5)cccc34)cc2)n1`, for which the TGI in the test on RPMI-8226 leukemia, in the test on UACC-62 melanoma, with EKVX NSCLC, with SK-MEL-28 melanoma, with NCI-H460 lung and in the test on OVCAR-4 ovarian was above 100 µM in each case. In addition, the TGI in the test with HCT-15 colon, in the test with K-562 leukemia and in the test on SK-OV-3 ovarian was above 100 µM each time.
In the case of `CCCCc1ccc(-n2c3nc(=O)n(C)c(=O)c-3nc3ccccc32)cc1`, the TGI was 57 µM with RPMI-8226 leukemia; 4 µM in the test with UACC-62 melanoma; 19.8 µM in the test with SW-620 colon; 15.5 µM in the test with EKVX NSCLC; 16.6 µM in the test with NCI-H460 lung; 22 µM with OVCAR-4 ovarian. In addition, the TGI is 18.3 µM in the test on HCT-15 colon, 33.6 µM in the test with K-562 leukemia and above 100 µM in the test with SK-OV-3 ovarian.
Turning to `O=C([O][Hg][CH2]C1COCC([CH2][Hg][O]C(=O)c2ccccc2)O1)c1ccccc1` (stereo unspecified), the GI50 in the test on RPMI-8226 leukemia was 2750 nM; in the test with UACC-62 melanoma it was 16400 nM; with SW-620 colon, 1540 nM; in the test with EKVX NSCLC, 19.6 µM; with SK-MEL-28 melanoma it was 6.86 µM; with NCI-H460 lung, 20000 nM. The GI50 with OVCAR-4 ovarian is 14400 nM; in the test on K-562 leukemia, 2610 nM; in the test on SK-OV-3 ovarian, 21800 nM. Also, the TGI turned out to be 7.66 µM in the test with RPMI-8226 leukemia; 32.4 µM in the test with UACC-62 melanoma; 3.32 µM in the test with SW-620 colon; 37.4 µM with EKVX NSCLC; 19.6 µM with SK-MEL-28 melanoma; 42.5 µM with NCI-H460 lung. In addition, the TGI in the test on OVCAR-4 ovarian worked out at 49.6 µM; in the test on K-562 leukemia, 11.9 µM; in the test on SK-OV-3 ovarian, 43 µM.
